Source: ChEMBL document CHEMBL1152029 (1997)
Calls of active or inactive are those of the source. No cut-off for these calls is given here.

Assays:
V79 [1] = experiment: The cytotoxicity in vitro against Chinese hamster V-79 cells at concentration of 1 mM; type: functional; conditions: Cricetulus griseus, read-out: Survival
Mus musculus [2] = experiment: %Survival of compound was measured using CD2F1 male mice in group of ten at 469 mg/kg dose on day 30; type: functional; conditions: 720 h
Mus musculus [3] = experiment: Mean survival time of compound was measured using CD2F1 male mice in group of ten at 469 mg/kg dose on day 30; type: functional
V79 [4] = experiment: The in vitro radioprotective effect measured against Chinese hamster V-79 cells at concentration of 0.1 mM; type: functional, Cricetulus griseus
V79 [5] = experiment: The cytotoxicity in vitro against Chinese hamster V-79 cells at concentration of 0.5 mM; type: functional; conditions: Cricetulus griseus, read-out: Survival
Mus musculus [6] = experiment: The percent increase in life span was measured using CD2F1 male mice at 469 mg/kg dose; type: functional
[7] = Mean survival time of treated group(T) and Mean survival time of control group(C) was measured using CD2F1 male mice at 469 mg/kg dose; type: functional
V79 [8] = experiment: The cytotoxicity in vitro against Chinese hamster V-79 cells at concentration of 0.1 mM; type: functional; conditions: Cricetulus griseus, read-out: Survival
Mus musculus [9] = experiment: Mean survival time of compound was measured using CD2F1 male mice in group of ten at 400 mg/kg dose on day 30; type: functional
Mus musculus [10] = experiment: The percent increase in life span was measured using CD2F1 male mice at 400 mg/kg dose; type: functional
V79 [11] = experiment: The cytotoxicity in vitro against Chinese hamster V-79 cells at concentration of 0.5 mM; NA= Not active; type: functional, cell-based; conditions: Cricetulus griseus
[12] = Mean survival time of treated group(T) and Mean survival time of control group(C) was measured using CD2F1 male mice at 400 mg/kg dose; type: functional
Mus musculus [13] = experiment: %Survival of compound was measured using CD2F1 male mice in group of ten at 400 mg/kg dose on day 30; type: functional; conditions: 720 h
V79 [14] = experiment: The cytotoxicity in vitro against Chinese hamster V-79 cells at concentration of 0.1 mM; NA= Not active; type: functional, cell-based; conditions: Cricetulus griseus
Mus musculus [15] = experiment: Mean survival time of compound was measured using CD2F1 male mice in group of ten at 239 mg/kg dose on day 30; type: functional
Mus musculus [16] = experiment: The percent increase in life span was measured using CD2F1 male mice at 239 mg/kg dose; type: functional
Mus musculus [17] = experiment: Mean survival time of treated group(T) and Mean survival time of control group(C) was measured using CD2F1 male mice at 239 mg/kg dose; type: functional
Mus musculus [18] = experiment: %Survival of compound was measured using CD2F1 male mice in group of ten at 239 mg/kg dose on day 30; type: functional; conditions: 720 h

| Structure (SMILES) | viability at 1000 µM (V79 [1]) | survival at 469 mg/kg (Mus musculus [2]) | MST (Mus musculus [3]) | DMF (V79 [4]) | viability at 500 µM (V79 [5]) | ILS at 469 mg/kg (Mus musculus [6]) | Ratio [7] | viability at 100 µM (V79 [8]) | MST (Mus musculus [9]) | ILS at 400 mg/kg (Mus musculus [10]) | Survival (V79 [11]) | Ratio [12] | survival at 400 mg/kg (Mus musculus [13]) | Survival (V79 [14]) | MST (Mus musculus [15]) | ILS at 239 mg/kg (Mus musculus [16]) | Ratio (Mus musculus [17]) | survival at 239 mg/kg (Mus musculus [18]) |
| --- | --- | --- | --- | --- | --- | --- | --- | --- | --- | --- | --- | --- | --- | --- | --- | --- | --- | --- |
| CNCCCNCCCSP(=O)(O)O | 90% | 60% | 20 | 1.5 | 99% | 18% | 1.94 | 93% |  |  |  |  |  |  |  |  |  |  |
| CNCCCNCCCSP(=O)(Oc1ccc(Cl)cc1)SCCCNCCCNC | 94% |  |  | 1.65 |  |  |  |  | 23 | 73% | inactive | 2.26 | 50% | inactive |  |  |  |  |
| NCCCNCCSP(=O)(O)O [AMIFOSTINE] | 0% |  |  | 1.4 | 2% |  |  | 100% |  |  |  |  |  |  | 27 | 130% | 2.63 | 80% |
